Data: patent US6524842B1, “Biodegradation of gasoline oxygenates” (Envirogen, Inc., priority 2000, dated 2003)
Read-outs that look alike come from different tables or passages of the source.

Key:
strain ENV735 [1] = assay: Growth substrates for ENV735; format: cell-based, Hydrogenophaga flava
strain ENV735 [2] = assay: MTBE degradation assays with ENV735 cells; format: cell-based, Hydrogenophaga flava
ENV 735 = assay: Membrane bioreactor (MBR1, MBR2) MTBE degradation; design: species or system Hydrogenophaga flava
Protocol: A calculated solids retention time (SRT) of 160 days was maintained by removing a portion of the reactor contents each day. The dissolved oxygen concentration in the reactor was maintained at ˜2 mg/L by adding air.

[3] = tested on: ENV 735-containing culture from MBR1; assay: Fluid bed bioreactor (FBR) MTBE degradation; conditions: flow rate increased 3-fold, 1 hr HRT
Protocol: A laboratory-scale FBR was constructed from a glass column with Teflon and stainless steel tubing and fittings to minimize abiotic losses. […] The carbon was fluidized to an expanded bed height of 125% of the original bed height by using a gear pump in the recycle line. Contaminated water was fed at a rate of 5.6 to 17 mL/min using a peristaltic pump, corresponding to hydraulic retention times (HRTs) of approximately 3 to 1 h, respectively. The HRT was calculated based on expanded bed volume and feed flow rate (assumes no significant biodegradation occurred in other wetted areas of the reactor).

[4] = tested on: hydrogen-oxidizing microorganism; assay: Bioreactor laboratory testing, continuous operation; conditions: hydraulic retention time of 2.5 hr to 3 days
Description: Batch operation can be initiated by inoculating the reactor with the hydrogen-oxidizing microorganism and then adding tertiary butyl alcohol, for example, to a final concentration of from 0.1 to 1% (v/v). The organisms are aerated and allowed to grow until no tertiary butyl alcohol remains in the culture medium. Additional tertiary butyl alcohol can then be added to further increase biomass levels. After sufficient biomass is obtained, a small amount of contaminant (e.g., MTBE) can be added to acclimate the organisms. Additional contaminant can be added after depletion of the prior addition. When sufficient degradation rates are achieved, the reactor can be operated in a continuous mode. Preferably, during continuous and batch operation, the reactor should be operated at a temperature of between 25 and 37° C., with the pH in the range of 6.8 to 7.2, and a dissolved oxygen concentration >2 mg/L. Hydraulic retention time within the reactor should be adjusted to allow sufficient time for degradation of the target compound to below treatment standards. […] Furthermore, the volatile suspended solids (biomass) concentration should be maintained at a relatively high concentration, preferably from 1,000 to 30,000 mg/l depending on the contaminant loading rate.

[5] = tested on: anaerobic sediment samples; conditions: the one active anaerobic sediment sample; cited from earlier work
strain ENV735 [6] = assay: TBA degradation by ENV735 cells; format: cell-based, Hydrogenophaga flava
strain ENV735 [7] = assay: [14C]MTBE mineralization to 14CO2; format: cell-based, Hydrogenophaga flava; conditions: YE-grown cells, 10 mg/L, within 24 hr
Description: Cells were collected by centrifugation, washed, and suspended in BSM to an OD550 of 1.0. […] At timed intervals air was passed through the samples and organic compounds and ^14CO2 in the effluent air were trapped (Marinucci, A. C. and R. Bartha, “Apparatus for monitoring the mineralization of volatile ^14C-labeled compounds”, Applied and Environmental Microbiology, 38:1020-1022, (1979)). Oxosol C14 (National Diagnostics, Atlanta, Ga.) served as a CO2 trapping solution and liquid scintillation cocktail. The amount of ^14CO2 produced was quantified by liquid scintillation counting.

[8] = growth of ENV735 on the substrate

Molecule	Growth (strain ENV735 [1]; [8])	further results
CCCO [1-Propanol]	+/−	
CC(C)(O)C(=O)O [2-Hydroxy isobutyric acid]	+	
CC(C)O [2-Propanol]	−	
N[C@@H](CCC(=O)O)C(=O)O [Glutamic acid]	+/−	
[HH] [H2, hydrogen]		Growth on H2 as a sole energy source (strain ENV735 [1]; strain ENV735): grew readily; effect of presence of H2 on MTBE degradation (strain ENV735 [2]; strain ENV735): not inhibited
CCC(C)C [Iso-Pentane]	−	
CC(O)C(=O)O (centres unmarked) [Lactic acid]	+/−	
COC(C)(C)C [MTBE, methyl-tert-butyl ether]	+	initial maximum MTBE oxidation rate (strain ENV735 [2]; 30° C., YE-grown cells, 25 mg/L MTBE): 86 nmole MTBE/min./mg total cell protein; MTBE removal rate (ENV 735; MBR1, 1 d HRT, influent ˜1000 mg/L): 42 mg/L/h; MTBE removal rate (ENV 735; MBR2, influent ˜2000 mg/L): 28 mg/L/h; MTBE stripping as share of MTBE loss (ENV 735; effluent air of MBRs): < 5%; removal of added MTBE [3]: > 90%; degradation of influent MTBE [4]: > 90%; transformation of MTBE [5]: about 50%
CO [Methanol]	−	
CCC [Propane]	+/−	
CCC(=O)O [Propionic acid]	−	
CC(=O)C(=O)O [Pyruvic acid]	+/−	
CC(=O)[O-].[Na+] [Sodium acetate]	+/−	
OC[C@H]1O[C@@](CO)(O[C@H]2O[C@H](CO)[C@@H](O)[C@H](O)[C@H]2O)[C@@H](O)[C@@H]1O [Sucrose]	+++	
CC(C)(C)O [TBA, tertiary-butyl alcohol]		Growth (strain ENV735 [1]): +++; initial TBA degradation rate (strain ENV735 [6]): 30 nmoles TBA/min./mg cell protein
COC(C)(C)C [[^14C]MTBE]		added [14C]MTBE recovered as 14CO2 (strain ENV735 [7]): Approximately 80%
Casein	+	
